Assays:
[1] = Form change on heating, drying or exposure to ambient conditions; type: physicochemical; settings: ambient temperature and humidity / storage at ambient conditions
Source text: Form V has only been truly isolated by growth of single crystals.
Isolated solids were dried with filter paper to remove residual solvents and analyzed by DSC, TGA and KF. […] (FIG. 45).
The sample was stirred for more than two months before being placed into storage without agitation and at ambient conditions. […] The material was collected by vacuum filtration and dried under ambient conditions. […] (FIG. 48).

[2] = Competition slurries between crystalline forms; type: physicochemical; settings: ethanol, agitating overnight

SMILES: Cc1cc(F)c(C(=O)Nc2cccc(-c3nncn3C(C)C)n2)cc1-n1cnc(C2CC2)c1 [Compound I Form VII, 5-(4-cyclopropyl-1H-imidazol-1-yl)-N-(6-(4-isopropyl-4H-1,2,4-triazol-3-yl)pyridin-2-yl)-2-fluoro-4-methylbenzamide]
- form change at ambient conditions [1]: rapidly converts back to Compound I Form IV
- outcome of competitive slurry with Compound I Form I [2]: full conversion of Compound I Form VII to Compound I Form I

— US9907790B2, “Solid forms of an ASK1 inhibitor” (Gilead Sciences, Inc., priority 2014, dated 2018)
